The solubility is the dissolved amount per volume that the medium holds. High values mean a readily soluble substance, low ones a poorly soluble substance.

A short description of data set [1]: Assay 6 Trypanosoma cruzi intracellular assay, cytotoxicity against H9c2 cells. It counts as cell-based. The settings on record: rat, H9C2 cardiomyocytes infected with T. cruzi trypomastigotes, total number of H9C2 cells, minimum threshold 4.3, read-out: cytotoxicity against H9c2 cells, pEC50 (converted). How it is done: Compounds were dispensed into black 384-well assay plates (Greiner) by acoustic dispensing (LabCyte ECHO). For potency determinations, eleven-point, one in three dilution curves were generated, with a top concentration of 50 μM. H9C2 rat cardiomyocytes cells were dispensed in T225 tissue culture flasks and after 4 hours they were infected during 18 hours with T. cruzi trypomastigotes in the same T225 tissue culture flasks at a multiplicity of infection of 1. Next, any remaining free trypomastigotes were washed away with PBS and the infected H9C2 cells were harvested by trypsinisation. The infected H9C2 cells were then plated into 384-well plates containing the compounds to be tested, at 2500 cells per well in DMEM media with 2% FBS, 1% Penicillin/Streptomocin, 2 mM L-Glutamine, 1 mM Na Pyruvate and 25 mM HEPES. After 72 h incubation at 37° C. in presence of 5% CO2, the plates were fixed and stained with 4% formaldehyde and 2 μM Draq5 for 3 hours at room temperature. The plates were imaged on a Perkin Elmer Opera high-content imaging system using a 20× air objective. Images were analysed using the Acapella building blocks system (Perkin Elmer). The image analysis algorithm first identified the H9C2 nuclei followed by demarcation of the cytoplasm and identification of intracellular amastigotes. This algorithm reported mean number of parasites per H9C2 cell, the percentage of infected H9C2 cells and the total number of H9C2 cells.

The next data set has as its system Trypanosoma cruzi. In words: Assay 6 Trypanosoma cruzi intracellular assay (infected H9C2 cells). The data set is classed as cell-based. The settings on record: H9c2, in Rattus norvegicus, 72 h, infected H9C2 rat cardiomyocytes, read-out: pEC50 value against Trypanosoma cruzi (converted). Summed up: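 Infected H9C2 rat cardiomyocytes (T. cruzi trypomastigotes, MOI 1, 18 h) plated at 2500 cells/well on compound, 11-point 1:3 curves from 50 μM top, 72 h at 37 °C in 2% FBS DMEM. Fixed, Draq5-stained, high-content imaged; algorithm counts parasites per cell, % infected cells and total host cells (cytotoxicity).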

Data set [2] can be described thus: Assay 1 intramacrophage Leishmania donovani assay, THP-1 cell count (cytotoxicity readout). It counts as cell-based. The following applies: human, minimum threshold 4.3, read-out: cytotoxicity against THP-1 cells, pEC50 value (converted). How it is done:
The intramacrophage Leishmania assay was performed using a modified version of the method described in De Rycker et al. (Antimicrob Agents Chemother. 2013 July; 57(7):2913-22. Comparison of a high-throughput high-content intracellular Leishmania donovani assay with an axenic amastigote assay. De Rycker M, Hallyburton I, Thomas J, Campbell L, Wyllie S, Joshi D, Cameron S, Gilbert I H, Wyatt P G, Frearson J A, Fairlamb A H, Gray D W.). Procedure: 350 nl of compound was pre-dispensed into 384 well sterile intermediary plates. For single point screening, amphotericin B was added to all wells of column 24 as a positive control (final concentration 2 μM) and DMSO to column 23. For potency determinations, ten-point, one in three dilution curves were created with the highest concentration being 50 μM and on each plate a control curve of amphotericin B was included. Controls were as follows: columns 11 and 12: DMSO, columns 23 and 24: amphotericin B (final concentration 2 μM). To the intermediary plates, 35 μl of THP-1 media was added and plates were shaken for >5 min to ensure complete mixing. THP-1 cells (8,000 per well, 50 μl) were plated into black clear-bottom 384 well plates (Corning) in presence of 20 nM PMA. After 20 min at RT, the plates were incubated at 37° C. under 5% CO2 in a humidified incubator for 75 h. The cells were then washed with […] sterile phosphate buffered saline (PBS) supplemented with 1 mM CaCl2, 0.5 mM MgCl2, 0.1% (w/v) bovine serum albumin (PBS-A) and amastigotes were added to all wells at a multiplicity of infection of 5 (40,000 amastigotes per well). After 40 min at RT, plates were returned to the incubator. Amastigotes were incubated in the presence of THP-1 macrophages for 16 h. Any remaining extracellular amastigotes were subsequently removed with an overflow wash of 1 mL PBS-A per well (wash buffer is being aspirated from the top of the well as it is being dispensed) followed by addition of 25 μl of the compound pre-dilutions using a Fluidx Ipette-pro pipetting station. The final dilution of each compound was 200-fold. Plates were incubated for 96 h and then washed (250 μl PBS-A) and fixed (4% (v/v) formaldehyde-PBS, 30 min, RT). After fixation, the wells were washed with 250 μl PBS, stained (10 μg/mL DAPI, 0.4 μg mL-1 HCS Cellmask Deep Red in PBS+0.1% (v/v) Triton X-100, 30 min, RT) and washed with 250 μl PBS. Finally, PBS+0.05% (v/v) thimerosal was added to the wells, the plates were sealed and imaged on a high-content microscope (GE IN Cell 2000) using a 10× objective. Image analysis was carried out with GE IN Cell Analyzer 1000 Workstation using the “Multi Target Analysis” module. Settings for segmentation were as follows: nuclei: minimum area: 142.384 μm2, sensitivity: 81, method: top-hat; cells: characteristic area: 2500 μm2, sensitivity: 60, method: multiscale top-hat; organelles (amastigotes): granule size 1-3, 3 scales, sensitivity: 90, detection in entire cell. For each well, i) THP-1 cell count (cytotoxicity readout) and ii) average number of amastigotes per cell (potency readout) were calculated, both in terms of pEC50 values.

The nature of data set [3]: Assay 5 Leishmania donovani intracellular assay, cytotoxicity against THP-1 cells. It counts as cell-based. The following applies: human, total number of THP-1 cells, minimum threshold 4.3, read-out: cytotoxicity against THP-1 cells, pEC50 value (converted). The procedure: Compounds were dispensed into black 384-well assay plates (Greiner) by acoustic dispensing (LabCyte ECHO). For potency determinations, eleven-point, one in three dilution curves were generated, with a top concentration of 50 μM. THP-1 human monocytes cells were dispensed in T225 tissue culture flasks and differentiated using 30 nM of PMA, after 24 hours they were infected overnight using Leishmania donovani expressing Green Fluorescent Protein (eGFP) amastigotes in the same T225 tissue culture flasks at a multiplicity of infection of 10. Next, any remaining free amastigotes were washed away with PBS and the infected THP-1 cells were harvested by trypsinisation. The infected cells were then plated into 384-well plates containing the compounds to be tested, at 3000 cells per well in RPMI media with 2% FBS and 25 mM Sodium bicarbonate. After 96 h incubation at 37° C. in presence of 5% CO2, the plates were fixed with 4% formaldehyde for 30 minutes, washed with PBS and stained with 0.1 mg/mL of DAPI for 30 minutes and washed again with PBS. The plates were imaged on a Perkin Elmer Opera high-content imaging system using a 20× air objective with two expositions, one for DAPI stain and other for eGFP. Images were analysed using the Acapella building blocks system (Perkin Elmer). The image analysis algorithm first identified the THP-1 nuclei followed by demarcation of the cytoplasm and identification of intracellular amastigotes. This algorithm reported mean number of parasites per THP-1 cell, the percentage of infected THP-1 cells and the total number of THP-1 cells.

Data set [4] is described as follows: Assay 4 solubility assay, ChemiLuminescent Nitrogen Detection (CLND). The following applies: phosphate buffered saline, pH 7.4, aqueous buffer, kinetic from dmso stock, pH 7.4 PBS, from 10 mM DMSO stock, 1 h at room temperature. The data set is classed as physicochemical. Summed up: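 Kinetic solubility: 10 mM DMSO stock diluted 5 µl into 100 µl pH 7.4 PBS, incubated 1 h at room temperature, then filtered. Filtrate quantified by HPLC with chemiluminescent nitrogen detection against ondansetron and caffeine standards; solubility in µM by linear-regression calibration.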

≈ marks a conversion by molar mass, not a printed value.

In the case of `CNCc1ccc(-c2cnc3nc(-c4cc(NC(=O)N5CCCC5)ccc4F)cn3n2)cc1` [Example 38, N-(4-fluoro-3-(2-(4-((methylamino)methyl)phenyl)imidazo[1,2-b] [1,2,4]triazin-6-yl)phenyl)pyrrolidine-1-carboxamide], the EC50 at 72 h in data set [1] is 794 to 3160 nM. Also, the EC50 in the data set on Trypanosoma cruzi is 5.01 to 631 nM. Further, the EC50 at 96 h in data set [2] is 3980 to 15800 nM; in data set [3] it was 2510 to 10000 nM. Moreover, the solubility at 1 h in data set [4] was 10 to 83 µM (≈ 4.46 to 37 µg/mL).

These data come from US10065965B2, “Imidazo[1,2-B][1,2,4]triazine derivatives as antiparasitic agents” (GlaxoSmithKline Intellectual Property Development Limited, priority 2015, dated 2018).
